A short description of series [1]: Triple helix melting point (Tm) by circular dichroism at 225 nm. It is filed as physicochemical. The settings on record: for melting point: Example 3; for Tm (° C.): triple helix melting. The method, then: (§1) FIGS. 5A, 5B, 5C, and 5D show the thermal denaturation of fully assembled CHPs and subsequent cooling to initial temperature. Samples were heated at 1° C./min from their initial temperature final temperature of 90° C. Sample was then cooled at 1° C./min to the starting temperature. (A) Thermal denaturation and partial reassembly of CHP CF-6d (150 μM) monitored at 225 nm. Sample was measured from 4° C. to 90° C. (B) Thermal denaturation and partial reassembly of CHP […] (75 μM, corresponding to 150 μM strand concentration) monitored at 225 nm. Sample was measured from 4° C. to 90° C. (C) Thermal denaturation and partial reassembly of CHP CF-9 (150 μM) monitored at 225 nm. Sample was measured from 10° C. to 90° C. (D) Thermal denaturation and partial reassembly of CHP CF-9d (75 μM, corresponding to 150 μM strand concentration) monitored at 225 nm. Sample was measured from 10° C. to 90° C.
FIGS. 11A and 11B show the First Derivative of mean residue ellipticity (MRE) at 225 nm in CD. […] There is no significant change in melting point between the monomeric and dimeric forms of the same peptide.
(§2) Circular Dichroism: Circular Dichroism (CD) was measured for all peptides at 225 nm. Melting curves were taken on peptides between 10 and 80° C. at a heating rate of 0.5° C./min, with pauses at each 1° C. Refolding experiments were performed after peptide solutions were incubated at 4° C. for at least 12 hours. Concentrations were normalized to strand concentration.

Series [2] is described as follows: CD refolding (triple helix assembly) at 10° C. monitored at 225 nm. It is filed as physicochemical. The settings on record: for folded after 2 hours: CD refolding. The procedure: Conversion was assumed to be at 100% after 96 h incubation at 4° C., and max trimer concentration was measured via CD ellipticity at 10° C. Samples were preheated to 80° C. in the sample cuvette for 10 min before being transferred directly to the sample holder held at a constant 10° C. Sample measurement began immediately. Initial time point for analysis was determined by measuring time for a blank (lx PBS) to thermally equilibrate in these conditions.
For all peptides, conversion was assumed to be at 100% after 96 h incubation at 4° C., and max trimer concentration was measured via CD ellipticity at 10° C. Samples were preheated to 80° C. in the sample cuvette for 10 min before being transferred directly to the sample holder held at a constant 10° C. Sample measurement began immediately. Initial time point for analysis was determined by measuring time for a blank (1×PBS) to thermally equilibrate in these conditions. This was set as the zero point for all peptides, as the large jump in CD due to temperature makes the initial jump irresolvable. (A) Rate of assembly of CHP 9 (60, 30, and 15 μM), over 2 h, monitored at 225 nm. (B) Rate of assembly of CHP 9d (30, 15, and 7.5 μM, corresponding to same CHP strand concentration from panel A), over 2 h, monitored at 225 nm. (C) Rate of assembly of CHP 6 (150 and 75 μM), over 2 h, monitored at 225 nm.
FIGS. 12A and 12B show CD refolding at 10° C. of CMPs monitored at 225 nm. CMPs were heated to 80° C. for 5 minutes before being placed into the CD and initial 2 min of monitored data was removed to eliminate thermal transition. Signal was normalized to that of a fully folded peptide.
as §2

Series [3] can be described thus: CD thermal denaturation and cooling gradient 90 to 4° C., refolding. It is filed as physicochemical. The settings on record: cooling 1° C./min from 90° C. The method, then:
as §1
The dimeric CHPs can also form their triple helices much more readily during slow cooling when compared to their monomeric counterparts. After thermal denaturation and heating to 90° C., the peptides were exposed to a decreasing thermal gradient from 90 to 4° C. (1° C./min) during which the ellipticity at 225 nm was monitored. During these cooling gradients, the dimeric CHPs began refolding at a higher temperature than the monomers with the same number of repeat units. […]

Series [4] has as its system crosslinked gelatin films. As to the kind of experiment: Binding of CF-labelled CHPs to crosslinked gelatin films at 37° C. with and without preheating. Set-up: species or system porcine. The settings on record: 20 μM, 37° C. overnight, PBS wash 20 h, FIG. 6C. The method, then: FIGS. 3A and 3B show the affinity of CHPs to gelatin films as monitored by fluorescence of conjugated CF fluorophore (492 ex, 533 em). (A) Fluorescence of CHPs bound to crosslinked gelatin after incubation at 37° C. overnight with no workup. (B) Fluorescence of CHPs remaining in crosslinked gelatin after incubation at 37° C. overnight without preheating, followed by washing with 1×PBS at 37° C. (20 h).
(A) Fraction of peptide remaining in a crosslinked gelatin film after 17 h at 25° C. (10 total washes). Values are normalized to fluorescence remaining in wells after 6 washes at 4° C. (>95% removal of CHPs 9r, 6r, and 5r). All washes performed in 1×PBS. (B) CHPs (15 μM) premixed into 10% porcine gelatin and preheated to 80° C. (10 min) before being added to a 96 well plate. Excess CHP-gelatin mixture was removed, then the premix was incubated at 4° C. for 2 hours. Wells were washed at 4° C., 5 times (>95% removal of CHPs 9r, 6r, and 5r). Wells were then washed for 2 hours (6 washes total) at 25° C. to monitor CHP remaining in the well. (C) Fluorescence of CHPs remaining in crosslinked gelatin after incubation at 37° C. overnight without preheating, followed by washing with 1×PBS at 37° C. (20 h). (D) Fluorescence of CHPs remaining in crosslinked gelatin after incubation at 37° C. overnight (80° C. preheating, 10 min), followed by washing with 1×PBS at 37° C. (20 h).
Dimeric CHPs were assessed for their ability to bind to collagen strands in crosslinked gelatin films. CHP solutions (20 μM in PBS) were added directly to the crosslinked gelatin films. For heated experiments, CHPs were preheated to 80° C. for 10 minutes before addition. Peptides were allowed to fully equilibrate with the gel at 37° C. overnight before being exposed to repeated washes (4×, PBS) at 37° C. to fully remove any non-specifically bound peptide and to determine binding level at body temperature. To measure retention, peptides were bound as previously described, but were subsequently washed with PBS 37° C. (5×1 h, 1×12 h) to measure retention within the gelatin films. […] Additionally, after a period of 20 hours, higher level of the dimeric CHP remained in the gelatin compared to the monomeric CHP.
A major limitation of the use of CHP in vivo, is the requirement of the triple helix to be fully disassembled before being injected. […] For this test, peptide solutions were allowed to warm to room temperature before being added (50 μL, 20 μM) to previously prepared crosslinked gelatin films. Solutions were then incubated at 37° C. overnight before removing the solution. Wells were washed at 37° C. with PBS (20 h) to determine binding. Preheated samples were prepared and incubated in the same way, but with preheating (80° C., 10 min) before being added to the crosslinked gelatin wells.

The subject of series [5] is porcine gelatin. The series is described as follows: SPR gelatin capture by immobilized biotinylated CHPs. It is filed as binding. The settings on record: gelatin 25 μg/mL. The procedure:
FIGS. 7A and 7B show SPR data for porcine gelatin capture by immobilized CHPs. […] Gelatin was applied to the sensor surface during the association phase, followed by elution with blank during dissociation phase. Association occurred for 981 s, followed by dissociation for 1800 s. Values were normalized to a 100% biotin lane, and were adjusted to the mass of peptide immobilized in each well. (A) Preheated (80° C., 10 min), quenched (0° C., 30 s) gelatin (25 μg/mL) was applied to the sensor at an ambient temperature of 37° C. (B) Preheated (80° C., 10 min), quenched (0° C., 30 s) gelatin (25 μg/mL) was applied to the sensor at an ambient temperature of 15° C.
Surface Plasmon Resonance (SPR). […] However, there were major differences observed during the association phase. At 37° C., there was a much higher amount of gelatin adsorbed to all the peptides tested on the surface when compared to 15° C. […] At 15° C., gelatin adsorbed to the surface at a much slower rate. […] However, this lower adsorption rate can be due to a reduced diffusion rate near the surface or a more condensed gelatin structure at this lower temperature.
Dimeric CHP is able to hybridize effectively with denatured collagens with faster folding kinetics than current, monomeric CHPs. Surface plasmon resonance (SPR) was used to measure the ability of the CHPs to trap denatured collagen from solution.

As to (GPO)9 [compound 9], in series [1], the melting point came out at 68 °C. Moreover, the “Tm (° C.)” value in series [1] (Table 1) and in series [1] (Table 2) was 68 (SEQ ID NO: 56) ° C in each case. The “folded after 2 hours” value in series [2] (60 μM) is reported as 40%. In series [3], the “temperature below the reported Tm until which no significant refolding was observed” value was ~15 °C. Besides, the “binding to gelatin wells at 37° C. without preheating” value in series [4] is reported as “unable to bind significantly without preheating”.
In series [1], (GPO)6 [compound 6] had a melting point of 37 °C. Moreover, the “Tm (° C.)” value in series [1] (Table 1) and in series [1] (Table 2) was 37 (SEQ ID NO: 59) ° C throughout. For the same substance, the “refolding after two hours of incubation” value in series [2] (10° C., same strand concentration) was “did not reach its half maximal refolding after two hours”. In series [2] (75 μM), the “folded after 2 hours” value was 28%. For the same substance, the “temperature below the reported Tm until which no significant refolding was observed” value in series [3] was “approximately 10 °C”. Also, the “binding to gelatin wells at 37° C. without preheating” value in series [4] is “do not have a strong enough affinity to the gelatin to bind effectively at physiologic temperature”.
Consider [(GPO)9G3)2KG [9d], for which the “Tm (° C.)” value in series [1] (Table 1) and in series [1] (Table 2) was 69 (SEQ ID NO: 55) ° C throughout. Besides, in series [2] (10° C., FIG. 12A), the “increase in refolding rate compared to monomeric GPO9” value is given as “two-fold”. Moreover, in series [4], the “binding to gelatin wells at 37° C. without preheating” value is recorded as “bind more significantly than the GPO9 monomer without preheating”. Further, the results for the “ability to bind gelatin” value in series [5] (15° C.) and in series [5] (37° C.) were “maintained its greater ability to bind gelatin” and “higher ability to bind gelatin than that of an equivalent number of strands in their monomeric counterparts”, respectively.

For the origin of these results see patent publication US11684675B2, “Dimeric collagen hybridizing peptides and methods of using” (University of Utah Research Foundation, priority 2015, dated 2023).
